Paper PMC8800111 (The Journal of Biological Chemistry, 2021)

Columns and labels:
Assay type in all cases: cell-based
[1] = molecular target: proteins of U3A human fibrosarcoma cells (4462 proteins detected) (Homo sapiens, UniProt P50990); conditions: protein CCT8; U3A cells
[2] = molecular target: proteins of U3A human fibrosarcoma cells (4462 proteins detected) (Homo sapiens, UniProt P16298); conditions: protein PPP3CB; U3A cells
[3] = molecular target: proteins of U3A human fibrosarcoma cells (4462 proteins detected) (Homo sapiens, UniProt Q68CP9); conditions: protein ARID2; U3A cells
[4] = molecular target: proteins of U3A human fibrosarcoma cells (4462 proteins detected) (Homo sapiens, UniProt Q8N163); conditions: protein CCAR2; U3A cells
[5] = molecular target: proteins of U3A human fibrosarcoma cells (4462 proteins detected) (Homo sapiens, UniProt Q14353); conditions: protein GAMT; U3A, 10 μM, 2 h
[6] = molecular target: proteins of U3A human fibrosarcoma cells (4462 proteins detected) (Homo sapiens, UniProt Q13627); conditions: protein DYRK1A, U3A cells
[7] = molecular target: proteins of U3A human fibrosarcoma cells (4462 proteins detected) (Homo sapiens, UniProt Q9UNZ2); conditions: protein NSFL1C, U3A cells
[8] = molecular target: proteins of U3A human fibrosarcoma cells (4462 proteins detected) (Homo sapiens, UniProt Q9UHL4); conditions: protein DPP7; U3A cells
[9] = molecular target: proteins of U3A human fibrosarcoma cells (4462 proteins detected) (Homo sapiens, UniProt P18206); conditions: protein VCL; soluble abundance after heat, U3A cells
[10] = molecular target: proteins of U3A human fibrosarcoma cells (4462 proteins detected) (Homo sapiens, UniProt P82933); conditions: protein MRPS9; soluble abundance after heat, U3A cells
[11] = molecular target: proteins of U3A human fibrosarcoma cells (4462 proteins detected) (Homo sapiens, UniProt Q9UHA3); conditions: protein RSL24D1; U3A cells
[12] = molecular target: proteins of U3A human fibrosarcoma cells (4462 proteins detected) (Homo sapiens, UniProt Q9BZJ0); conditions: protein CRNKL1; U3A cells
[13] = molecular target: proteins of U3A human fibrosarcoma cells (4462 proteins detected) (Homo sapiens, UniProt P49756); conditions: protein RBM25; U3A cells
[14] = molecular target: proteins of U3A human fibrosarcoma cells (4462 proteins detected) (Homo sapiens, UniProt O00399); conditions: protein DCTN6, U3A cells
[15] = molecular target: proteins of U3A human fibrosarcoma cells (4462 proteins detected) (Homo sapiens, UniProt Q9P2K3); conditions: protein RCOR3; U3A cells
[16] = molecular target: proteins of U3A human fibrosarcoma cells (4462 proteins detected) (Homo sapiens, UniProt Q9NQW6); conditions: protein ANLN; soluble abundance after heat, U3A cells
[17] = molecular target: proteins of U3A human fibrosarcoma cells (4462 proteins detected) (Homo sapiens, UniProt P06756); conditions: protein ITGAV; soluble abundance after heat, U3A cells
[18] = molecular target: proteins of U3A human fibrosarcoma cells (4462 proteins detected) (Homo sapiens, UniProt Q14974); conditions: protein KPNB1; soluble abundance after heat, U3A cells
[19] = molecular target: proteins of U3A human fibrosarcoma cells (4462 proteins detected) (Homo sapiens, UniProt Q12893); conditions: protein TMEM115; U3A, 10 μM, 2 h
[20] = molecular target: proteins of U3A human fibrosarcoma cells (4462 proteins detected) (Homo sapiens, UniProt Q96DH6); conditions: protein MSI2; U3A, 10 μM, 2 h
[21] = molecular target: proteins of U3A human fibrosarcoma cells (4462 proteins detected) (Homo sapiens, UniProt Q9BUJ2); conditions: protein HNRNPUL1, U3A cells
[22] = molecular target: proteins of U3A human fibrosarcoma cells (4462 proteins detected) (Homo sapiens, UniProt Q96T37); conditions: protein RBM15; U3A cells
[23] = molecular target: proteins of U3A human fibrosarcoma cells (4462 proteins detected) (Homo sapiens, UniProt Q9Y3D3); conditions: protein MRPS16; U3A, 10 μM, 2 h
[24] = molecular target: proteins of U3A human fibrosarcoma cells (4462 proteins detected) (Homo sapiens, UniProt P22059); conditions: protein OSBP; soluble abundance after heat, U3A cells
[25] = molecular target: proteins of U3A human fibrosarcoma cells (4462 proteins detected) (Homo sapiens, UniProt P50542); conditions: protein PEX5, U3A cells
[26] = molecular target: proteins of U3A human fibrosarcoma cells (4462 proteins detected) (Homo sapiens, UniProt Q6YN16); conditions: protein HSDL2; U3A cells
[27] = molecular target: proteins of U3A human fibrosarcoma cells (4462 proteins detected) (Homo sapiens, UniProt O95456); conditions: protein PSMG1, U3A cells
[28] = molecular target: proteins of U3A human fibrosarcoma cells (4462 proteins detected) (Homo sapiens, UniProt Q14669); conditions: protein TRIP12, U3A cells
[29] = molecular target: proteins of U3A human fibrosarcoma cells (4462 proteins detected) (Homo sapiens, UniProt Q9P2E9); conditions: protein RRBP1; soluble abundance after heat, U3A cells
[30] = molecular target: proteins of U3A human fibrosarcoma cells (4462 proteins detected) (Homo sapiens, UniProt P35249); conditions: protein RFC4; U3A, 10 μM, 2 h

Sequence of proteins of U3A human fibrosarcoma cells (4462 proteins detected) (Homo sapiens, UniProt Q8N163) (Q8N163 whole entry): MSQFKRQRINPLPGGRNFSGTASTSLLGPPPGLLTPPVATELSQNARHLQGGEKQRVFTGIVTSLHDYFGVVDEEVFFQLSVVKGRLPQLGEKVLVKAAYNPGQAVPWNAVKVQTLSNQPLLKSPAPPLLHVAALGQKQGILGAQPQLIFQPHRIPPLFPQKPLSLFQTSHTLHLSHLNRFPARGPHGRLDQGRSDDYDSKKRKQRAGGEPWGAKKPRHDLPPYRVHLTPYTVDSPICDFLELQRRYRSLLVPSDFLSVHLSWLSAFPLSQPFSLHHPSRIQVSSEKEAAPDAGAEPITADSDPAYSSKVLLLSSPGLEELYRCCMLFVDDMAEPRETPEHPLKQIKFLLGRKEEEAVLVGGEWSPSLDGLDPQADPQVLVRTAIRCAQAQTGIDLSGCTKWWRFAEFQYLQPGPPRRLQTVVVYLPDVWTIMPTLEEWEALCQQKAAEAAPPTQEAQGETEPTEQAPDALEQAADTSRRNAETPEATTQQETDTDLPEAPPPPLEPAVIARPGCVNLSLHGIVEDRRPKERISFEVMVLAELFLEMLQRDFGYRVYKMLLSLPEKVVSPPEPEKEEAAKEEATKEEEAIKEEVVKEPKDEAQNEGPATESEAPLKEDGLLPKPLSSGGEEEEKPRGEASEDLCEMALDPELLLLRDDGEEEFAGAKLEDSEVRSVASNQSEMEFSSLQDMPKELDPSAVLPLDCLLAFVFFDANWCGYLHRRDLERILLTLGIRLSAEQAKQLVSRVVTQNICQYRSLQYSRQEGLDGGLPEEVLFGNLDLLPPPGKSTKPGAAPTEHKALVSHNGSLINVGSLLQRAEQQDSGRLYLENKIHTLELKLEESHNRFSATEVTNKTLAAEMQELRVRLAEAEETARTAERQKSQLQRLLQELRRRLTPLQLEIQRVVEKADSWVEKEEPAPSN
Sequence of proteins of U3A human fibrosarcoma cells (4462 proteins detected) (Homo sapiens, UniProt Q9NQW6) (Q9NQW6 whole entry): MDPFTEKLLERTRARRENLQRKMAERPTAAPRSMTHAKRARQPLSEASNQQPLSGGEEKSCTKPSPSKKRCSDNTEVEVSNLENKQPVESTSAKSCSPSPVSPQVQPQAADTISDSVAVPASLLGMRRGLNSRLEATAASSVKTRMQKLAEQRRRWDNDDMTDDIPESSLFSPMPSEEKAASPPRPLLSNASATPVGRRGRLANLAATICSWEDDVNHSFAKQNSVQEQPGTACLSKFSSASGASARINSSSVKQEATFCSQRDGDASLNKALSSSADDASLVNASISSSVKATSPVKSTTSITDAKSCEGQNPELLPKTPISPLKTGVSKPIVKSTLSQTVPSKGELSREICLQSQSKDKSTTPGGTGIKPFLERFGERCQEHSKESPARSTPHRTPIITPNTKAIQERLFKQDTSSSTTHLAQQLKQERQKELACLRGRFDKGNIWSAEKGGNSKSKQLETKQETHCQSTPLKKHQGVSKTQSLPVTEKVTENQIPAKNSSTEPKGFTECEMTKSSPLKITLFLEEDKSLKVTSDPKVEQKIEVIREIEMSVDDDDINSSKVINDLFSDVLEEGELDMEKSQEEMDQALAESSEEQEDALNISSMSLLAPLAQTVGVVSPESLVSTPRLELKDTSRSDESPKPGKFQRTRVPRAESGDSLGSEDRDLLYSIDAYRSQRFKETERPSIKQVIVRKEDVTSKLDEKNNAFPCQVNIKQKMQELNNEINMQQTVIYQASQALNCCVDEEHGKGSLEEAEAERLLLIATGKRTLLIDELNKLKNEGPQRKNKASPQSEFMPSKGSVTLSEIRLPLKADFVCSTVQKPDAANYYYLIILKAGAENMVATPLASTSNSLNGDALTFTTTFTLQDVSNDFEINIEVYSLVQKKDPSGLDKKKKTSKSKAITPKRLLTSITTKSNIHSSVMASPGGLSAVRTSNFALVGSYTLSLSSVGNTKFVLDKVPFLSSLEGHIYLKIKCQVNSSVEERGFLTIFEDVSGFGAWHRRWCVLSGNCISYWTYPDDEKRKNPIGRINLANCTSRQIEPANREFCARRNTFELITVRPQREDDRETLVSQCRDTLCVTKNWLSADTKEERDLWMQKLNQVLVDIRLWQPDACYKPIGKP
Sequence of proteins of U3A human fibrosarcoma cells (4462 proteins detected) (Homo sapiens, UniProt Q96DH6) (Q96DH6 whole entry): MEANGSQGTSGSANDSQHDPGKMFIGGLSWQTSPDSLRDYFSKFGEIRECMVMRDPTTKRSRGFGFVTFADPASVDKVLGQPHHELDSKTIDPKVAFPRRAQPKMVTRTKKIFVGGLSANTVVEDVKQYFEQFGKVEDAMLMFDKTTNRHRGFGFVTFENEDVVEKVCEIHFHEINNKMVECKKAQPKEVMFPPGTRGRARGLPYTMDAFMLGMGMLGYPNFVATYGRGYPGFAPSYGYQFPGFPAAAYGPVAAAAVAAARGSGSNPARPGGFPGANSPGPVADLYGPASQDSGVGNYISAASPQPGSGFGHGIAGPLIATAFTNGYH
Sequence of proteins of U3A human fibrosarcoma cells (4462 proteins detected) (Homo sapiens, UniProt Q9BZJ0) (Q9BZJ0 whole entry): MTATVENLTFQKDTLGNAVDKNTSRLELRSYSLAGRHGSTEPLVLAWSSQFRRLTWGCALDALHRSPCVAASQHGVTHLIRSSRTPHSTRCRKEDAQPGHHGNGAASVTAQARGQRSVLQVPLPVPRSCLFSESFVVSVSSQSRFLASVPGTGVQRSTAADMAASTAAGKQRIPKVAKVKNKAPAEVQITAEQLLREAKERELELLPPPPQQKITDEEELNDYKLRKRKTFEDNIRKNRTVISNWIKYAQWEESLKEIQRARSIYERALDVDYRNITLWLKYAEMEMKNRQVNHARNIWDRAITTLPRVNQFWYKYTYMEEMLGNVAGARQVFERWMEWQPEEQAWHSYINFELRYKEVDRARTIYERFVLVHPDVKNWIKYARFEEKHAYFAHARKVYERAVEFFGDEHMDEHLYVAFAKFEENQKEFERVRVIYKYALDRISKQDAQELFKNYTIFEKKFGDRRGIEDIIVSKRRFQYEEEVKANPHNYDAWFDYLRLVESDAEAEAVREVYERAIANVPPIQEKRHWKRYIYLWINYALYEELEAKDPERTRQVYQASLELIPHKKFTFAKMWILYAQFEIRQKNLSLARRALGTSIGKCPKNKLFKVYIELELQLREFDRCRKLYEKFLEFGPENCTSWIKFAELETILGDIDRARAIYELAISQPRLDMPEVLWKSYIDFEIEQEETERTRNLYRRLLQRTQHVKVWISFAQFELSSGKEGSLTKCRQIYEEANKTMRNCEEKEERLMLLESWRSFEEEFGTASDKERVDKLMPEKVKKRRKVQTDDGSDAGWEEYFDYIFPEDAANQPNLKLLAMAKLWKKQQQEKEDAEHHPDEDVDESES
Sequence of proteins of U3A human fibrosarcoma cells (4462 proteins detected) (Homo sapiens, UniProt P22059) (P22059 whole entry): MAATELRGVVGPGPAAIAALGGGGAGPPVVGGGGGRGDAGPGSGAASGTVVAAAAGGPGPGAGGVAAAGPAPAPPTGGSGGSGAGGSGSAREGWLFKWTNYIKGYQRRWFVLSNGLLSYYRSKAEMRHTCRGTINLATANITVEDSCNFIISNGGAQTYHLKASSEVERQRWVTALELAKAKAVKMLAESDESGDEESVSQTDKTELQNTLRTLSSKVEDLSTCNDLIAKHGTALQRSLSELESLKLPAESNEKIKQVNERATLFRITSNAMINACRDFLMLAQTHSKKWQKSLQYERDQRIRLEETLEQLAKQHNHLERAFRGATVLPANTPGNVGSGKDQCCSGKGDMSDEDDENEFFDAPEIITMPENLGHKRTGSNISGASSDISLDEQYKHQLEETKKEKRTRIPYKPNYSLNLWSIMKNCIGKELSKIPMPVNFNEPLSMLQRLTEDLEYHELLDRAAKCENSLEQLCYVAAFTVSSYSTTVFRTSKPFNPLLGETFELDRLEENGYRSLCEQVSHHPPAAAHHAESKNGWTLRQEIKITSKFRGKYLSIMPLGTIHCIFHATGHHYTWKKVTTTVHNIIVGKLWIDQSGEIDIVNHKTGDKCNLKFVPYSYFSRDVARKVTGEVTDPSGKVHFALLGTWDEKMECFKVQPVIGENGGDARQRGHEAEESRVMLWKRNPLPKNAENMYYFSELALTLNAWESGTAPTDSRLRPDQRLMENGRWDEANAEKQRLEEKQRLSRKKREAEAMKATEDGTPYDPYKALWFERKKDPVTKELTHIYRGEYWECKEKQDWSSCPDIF
Sequence of proteins of U3A human fibrosarcoma cells (4462 proteins detected) (Homo sapiens, UniProt P06756) (P06756 31-1048): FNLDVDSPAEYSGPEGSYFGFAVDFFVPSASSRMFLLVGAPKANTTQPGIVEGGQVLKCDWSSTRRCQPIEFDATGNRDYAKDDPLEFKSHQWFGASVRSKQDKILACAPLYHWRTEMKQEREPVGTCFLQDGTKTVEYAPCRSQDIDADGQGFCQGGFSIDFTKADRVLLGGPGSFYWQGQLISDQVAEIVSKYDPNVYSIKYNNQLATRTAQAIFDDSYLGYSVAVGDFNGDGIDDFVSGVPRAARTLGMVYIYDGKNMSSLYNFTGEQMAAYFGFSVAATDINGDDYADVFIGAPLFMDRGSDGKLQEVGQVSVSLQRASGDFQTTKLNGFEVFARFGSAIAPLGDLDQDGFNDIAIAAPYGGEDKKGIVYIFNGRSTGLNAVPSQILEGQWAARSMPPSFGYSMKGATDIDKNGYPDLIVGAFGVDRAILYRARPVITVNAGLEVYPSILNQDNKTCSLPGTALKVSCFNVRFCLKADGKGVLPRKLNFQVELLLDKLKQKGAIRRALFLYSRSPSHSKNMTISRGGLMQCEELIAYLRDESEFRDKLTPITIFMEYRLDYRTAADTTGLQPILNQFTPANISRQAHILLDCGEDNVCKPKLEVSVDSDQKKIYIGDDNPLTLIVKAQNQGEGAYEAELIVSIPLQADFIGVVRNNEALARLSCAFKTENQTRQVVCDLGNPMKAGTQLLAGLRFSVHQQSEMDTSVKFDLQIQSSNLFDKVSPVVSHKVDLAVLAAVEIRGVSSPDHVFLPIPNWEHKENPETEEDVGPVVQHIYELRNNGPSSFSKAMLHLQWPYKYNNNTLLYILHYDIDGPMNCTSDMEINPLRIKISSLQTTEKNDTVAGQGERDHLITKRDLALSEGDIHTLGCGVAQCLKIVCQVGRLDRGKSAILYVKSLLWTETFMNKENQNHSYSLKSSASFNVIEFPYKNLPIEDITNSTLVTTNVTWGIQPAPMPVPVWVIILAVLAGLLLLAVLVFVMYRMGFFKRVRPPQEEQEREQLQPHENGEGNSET

In the case of CCc1nc(N)nc(N)c1-c1ccc(Cl)cc1 [pyrimethamine], the “Log2 (PYR/DMSO)” value [1] is reported as 0.16, the “Log2 (PYR/DMSO)” value [2] is reported as 0.19 and the “Log2 (PYR/DMSO)” value [3] is reported as 0.18. The “Log2 (PYR/DMSO)” value [4] was 0.18, the “Log2 (PYR/DMSO), GAMT” value [5] was -0.27 and the “Log2 (PYR/DMSO)” value [6] was -0.05. For the same molecule, the “Log2 (PYR/DMSO)” value [7] was -0.04, the “Log2 (PYR/DMSO)” value [8] was 0.22 and the “Log2 (PYR/DMSO)” value [9] was 0.15. For the same molecule, the “Log2 (PYR/DMSO)” value [10] was 0.15, the “Log2 (PYR/DMSO)” value [11] was 0.17 and the “Log2 (PYR/DMSO)” value [12] was 0.16. The “Log2 (PYR/DMSO)” value [13] was 0.21, the “Log2 (PYR/DMSO)” value [14] was -0.04 and the “Log2 (PYR/DMSO)” value [15] was 0.21. For the same molecule, the “Log2 (PYR/DMSO)” value [16] was 0.14, the “Log2 (PYR/DMSO)” value [17] was 0.14 and the “Log2 (PYR/DMSO)” value [18] was 0.14. For the same molecule, the “Log2 (PYR/DMSO), TMEM115” value [19] was 0.38, the “Log2 (PYR/DMSO), MSI2” value [20] was -0.17 and the “Log2 (PYR/DMSO)” value [21] was -0.04. For the same molecule, the “Log2 (PYR/DMSO)” value [22] was 0.17, the “Log2 (PYR/DMSO), MRPS16” value [23] was 0.24 and the “Log2 (PYR/DMSO)” value [24] was 0.14. For the same molecule, the “Log2 (PYR/DMSO)” value [25] was -0.03, the “Log2 (PYR/DMSO)” value [26] was 0.22 and the “Log2 (PYR/DMSO)” value [27] was -0.05. The “Log2 (PYR/DMSO)” value [28] was -0.04, the “Log2 (PYR/DMSO)” value [29] was 0.15 and the “Log2 (PYR/DMSO), RFC4” value [30] was 0.27.
